Assay results from article PMC7660650, “Chemical Starting Matter for HNF4α Ligand Discovery and Chemogenomics” (International Journal of Molecular Sciences, 2020).
“And” between values parts separate entries of the source, which are not always exact repeats. Identical values can stand only once. “Also recorded” adds a separate entry of the source. Like-named read-outs stand apart in the source and are kept apart here.

Experiments:
[1] = molecular target: T1, Gal4-HNF4α (human HNF4α LBD) (Homo sapiens, UniProt P41235); test: Hybrid Gal4-HNF4α reporter gene assay in transiently transfected HEK293T cells; type: cell-based; settings: for HNF4a-screening_activity_(mean_of_n=2): Table S1, primary screening; for Primary Screen (Fold Act., 50 µM): mean of two biologically independent repeats, vs. 0.2% DMSO; for Follow-up HNF4α (fold activation of reporter activity) / EC50: at least four repeats; for HNF4α Ligand Type: Gal4-HNF4α assay; for EC50: read-out: Validated HNF4α Modulation EC50
T1 construct: uniprot entry: P41235-1, residues 142-377; expressed in transfected cells; host or cells: HEK293T
T1 sequence (P41235 142-377): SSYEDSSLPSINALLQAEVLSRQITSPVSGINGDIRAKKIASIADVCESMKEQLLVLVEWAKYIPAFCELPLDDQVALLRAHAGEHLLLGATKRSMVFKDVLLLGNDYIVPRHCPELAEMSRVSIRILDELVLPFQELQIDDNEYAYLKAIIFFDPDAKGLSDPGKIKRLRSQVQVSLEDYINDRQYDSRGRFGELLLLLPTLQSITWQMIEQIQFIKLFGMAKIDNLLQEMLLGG

Gal4–VP16 = test: Gal4-VP16 control experiment (reporter gene assay, HEK293T cells); type: cell-based; settings: mean ± SD
Method: The frame and sequence of the fusion plasmid were verified by sequencing. pFR-Luc (Stratagene) was used as reporter plasmid and pRL-SV40 (Promega, Madison, WI, USA) served for normalization of transfection efficiency and cell growth. The Gal4-VP16 [25] expressed from plasmid pECE-SV40-Gal4-VP16 [26] […] Assay Procedure: HEK293T cells were grown in Dulbecco’s Modified Eagle Medium (DMEM) high glucose, supplemented with 10% Fetal Bovine Serum (FCS), sodium pyruvate (1 mM), penicillin (100 U/mL), and streptomycin (100 μg/mL) at 37 °C and 5% CO2. The day before transfection, HEK293T cells were seeded in 96-well plates (3.0·10^4 cells/well). Before transfection, the medium was changed to Opti-MEM without supplements. Transient transfection was carried out using Lipofectamine LTX reagent (Invitrogen, Carlsbad, CA, USA) according to the manufacturer’s protocol with pFR-Luc (Stratagene), pRL-SV40 (Promega), and the pFA-CMV-hHNF4α-LBD clone or pECE-SV40-Gal4-VP16 for control experiments. Five hours after transfection, the medium was changed to Opti-MEM supplemented with penicillin (100 U/mL), streptomycin (100 μg/mL), now additionally containing 0.1% DMSO (0.2% in the primary screen) and the respective test compounds or 0.1% DMSO (0.2% in the primary screen) alone as the untreated control. In the primary screening, the core set of the Prestwick Drug Fragment Library (Prestwick Chemical, Illkirch, France) was tested at 50 µM concentration in two biologically independent repeats. In the follow-up and dose-response profiling, each concentration was tested in duplicates in at least three biologically independent repeats. Following overnight (12−14 h) incubation with the test compounds, cells were assayed for luciferase activity using Dual-Glo™ luciferase assay system (Promega) according to the manufacturer’s protocol. Luminescence was measured with a Tecan Spark 10M luminometer (Tecan Group Ltd., Männedorf, Switzerland). […] Fold activation was obtained by dividing the mean RLU of test compounds at a respective concentration by the mean RLU of untreated control.

[2] = test system: HNF4α-regulated gene fructose-1,6-bisphosphatase 1 (FBP1); test: FBP1 mRNA expression in HepG2 cells by qRT-PCR; type: cell-based, human; settings: 8 h, vs 0.1% DMSO
[3] = molecular target: T2, recombinant HNF4α LBD protein (Homo sapiens, UniProt P41235); test: Isothermal titration calorimetry (ITC); type: binding; settings: for Kd: 25 °C, protein 10–20 µM titrated with ligand 50–200 µM, read-out: HNF4α LBD Binding (Kd); for n (ITC binding model): Figure 4
T2 construct: The LDB domain of HNF4α (aa. 148–377) subcloned into pNIC28-Bsa4; His6 (N); made in house; host or cells: E. coli Rosetta
T2 sequence (P41235 148-377): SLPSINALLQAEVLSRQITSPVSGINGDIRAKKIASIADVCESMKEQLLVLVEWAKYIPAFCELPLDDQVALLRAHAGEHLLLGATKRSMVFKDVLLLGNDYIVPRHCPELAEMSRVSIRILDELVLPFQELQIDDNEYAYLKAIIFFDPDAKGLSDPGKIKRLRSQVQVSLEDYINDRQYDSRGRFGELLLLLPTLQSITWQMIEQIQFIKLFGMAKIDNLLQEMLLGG
Method: The recombinant protein harboring an N-terminal His6 tag was initially purified by Ni^2+-affinity chromatography. Size exclusion chromatography was performed using Superdex S75 column (GE Healthcare, Chicago, IL, USA.), and the pure protein was stored in a buffer containing 20 mM 4-(2-hydroxyethyl)-1-piperazineethanesulfonic acid (HEPES) pH 7.5, 200 mM NaCl, 0.5 mM tris(2-carboxyethyl)phosphine (TCEP), and 5% w/v glycerol.
Isothermal titration calorimetry was performed on an Affinity ITC (TA Instruments, New Castle, DE, USA). The instrument was equilibrated to 25 °C and the stirring rate was set to 75 rpm. HNF4α buffer (20 mM HEPES pH 7.5, 200 mM NaCl, 0.5 mM TCEP, 5% w/v glycerol) with up to 1% DMSO (final concentration) was used for ITC. The recombinant HNF4α LBD protein (10–20 µM, 172 µL) was titrated with fragments (4, 6, 7, 9, 10; 50–200 µM; dissolved in the same buffer). A total of 20-30 injections with a volume of 2.5–4 µL and with an interval of 200–300 s were performed. As a control experiment, HNF4α protein was titrated with buffer, and the buffer was titrated with test compound to detect dissolution artifacts with otherwise identical experimental parameters. Data analysis was performed with NanoAnalyze^TM Software (TA Instruments, New Castle, DE, USA.) using an independent binding model.

[4] = molecular target: the molecule itself; test: ITC; HNF4α LBD protein alone; dimer dissociation upon dilution (seen when inverse ITC experiments were tried); dimer to monomers
[5] = significance of Gal4-HNF4α follow-up vs Gal4-VP16 control at the same concentration

c1ccc(-n2cccn2)cc1 [Prestw-Frag-3759, c1cnn(c1)-c1ccccc1]
HNF4a-screening_activity_(mean_of_n=2) ([1]; 50 µM): 1.212

Cc1cc(C(C)(C)CC(C)(C)C)ccc1O [compound 1, Cc1cc(ccc1O)C(C)(C)CC(C)(C)C]
Primary Screen (Fold Act., 50 µM) ([1]; 50 µM): 2.48 fold activation | Follow-up HNF4α (fold activation of reporter activity) ([1]; 50 µM, mean ± SD): 1.1 ± 0.2 (50 µM) fold activation | HNF4a-screening_activity_(mean_of_n=2) ([1]; 50 µM, listed as Prestw-Frag-1016): 2.483 and 1.264 | VP16 Control (fold activation of reporter activity) (Gal4–VP16; 50 µM): 0.80 ± 0.07 (50 µM) fold activation

COc1ccc2c(c1)OCC2=O [compound 2, COc1ccc2C(=O)COc2c1]
Primary Screen (Fold Act., 50 µM) ([1]; 50 µM): 1.55 fold activation | Follow-up HNF4α (fold activation of reporter activity) ([1]; 50 µM, mean ± SD): 1.3 ± 0.2 (50 µM) fold activation | HNF4a-screening_activity_(mean_of_n=2) ([1]; 50 µM, listed as Prestw-Frag-1362): 0.8621 and 1.554 | VP16 Control (fold activation of reporter activity) (Gal4–VP16; 50 µM): 1.3 ± 0.3 (50 µM) fold activation

Nc1nc2cc(C(=O)c3ccccc3)ccc2[nH]1 [compound 3]
Primary Screen (Fold Act., 50 µM) ([1]; 50 µM): 2.09 fold activation | Follow-up HNF4α (fold activation of reporter activity) ([1]; 50 µM, mean ± SD): 1.5 ± 0.2 (50 µM) fold activation | VP16 Control (fold activation of reporter activity) (Gal4–VP16; 50 µM): 1.7 ± 0.3 (50 µM) fold activation

O=C(Nc1ccccc1Cl)c1ccccc1O [compound 4, Oc1ccccc1C(=O)Nc1ccccc1Cl]
FBP1 mRNA expression ([2]; HepG2, 50 µM): promoted FBP1 expression; also recorded: tendency to enhanced FBP1 mRNA levels

CC(C)CC(N)C1(c2ccc(Cl)cc2)CCC1 (stereo not drawn) [compound 5, CC(C)CC(N)C1(CCC1)c1ccc(Cl)cc1]
Primary Screen (Fold Act., 50 µM) ([1]; 50 µM): 1.80 fold activation | Follow-up HNF4α (fold activation of reporter activity) ([1]; 50 µM, mean ± SD): tendency for HNF4α modulation | Follow-up HNF4α (fold activation of reporter activity) ([1]; 100 µM, mean ± SD): 2.5 ± 0.2 (100 µM) fold activation | HNF4α Ligand Type [1]: Agonist | HNF4a-screening_activity_(mean_of_n=2) ([1]; 50 µM, listed as Prestw-Frag-1566): 0.9114 and 1.797 | EC50 ([1]; dose-response, mean ± SD): > 100 µM | HNF4α vs. VP16 (p, t-test) [1, 5]: p < 0.0001 (***) | VP16 Control (fold activation of reporter activity) (Gal4–VP16; 100 µM): 1.1 ± 0.1 (100 µM) fold activation

Nc1ncn([C@@H]2O[C@H](CO)[C@@H](O)[C@H]2O)c(=O)n1 [compound 6, Nc1ncn([C@@H]2O[C@H](CO)[C@@H](O)[C@H]2O)c(=O)n1]
FBP1 mRNA expression ([2]; HepG2, 10 µM): significantly promoted FBP1 expression | HNF4α vs. VP16 (p, t-test) [1]: p = 0.0034 (**)

Nc1ncns1 [compound 7, Nc1ncns1]
FBP1 mRNA expression ([2]; HepG2, 50 µM): promoted FBP1 expression; also recorded: tendency to enhanced FBP1 mRNA levels | Kd [3]: ~7 µM and 7 µM | n (ITC binding model) [3]: 0.9 | Primary Screen (Fold Act., 50 µM) ([1]; 50 µM): 2.36 fold activation | Follow-up HNF4α (fold activation of reporter activity) ([1]; 50 µM, mean ± SD): 3.0 ± 0.3 (50 µM) fold activation | HNF4α Ligand Type [1]: Agonist | HNF4a-screening_activity_(mean_of_n=2) ([1]; 50 µM): 2.362 | EC50 ([1]; dose-response, mean ± SD): 31 µM | Validated HNF4α Modulation maximum fold act. ([1]; maximum fold increase in reporter activity relative to 0.1% DMSO): 3.8 fold act. and 3.8 ± 0.6 fold act. | HNF4α vs. VP16 (p, t-test) [1, 5]: p < 0.0001 (***) | VP16 Control (fold activation of reporter activity) (Gal4–VP16; 50 µM): 1.4 ± 0.1 (50 µM) fold activation

Cc1nc(-c2ccccc2)c(-c2ccccc2)o1 [compound 8]
Follow-up HNF4α (fold activation of reporter activity) ([1]; 50 µM, mean ± SD): 1.1 ± 0.2 (50 µM) fold activation | VP16 Control (fold activation of reporter activity) (Gal4–VP16; 50 µM): 0.92 ± 0.07 (50 µM) fold activation

O=C(O)c1cc(-c2ccccc2)ccc1O [compound 9, OC(=O)c1cc(ccc1O)-c1ccccc1]
FBP1 mRNA expression ([2]; HepG2, 50 µM): decreased FBP1 mRNA levels; also recorded: robustly decreased FBP1 expression

OC(c1ccc(F)cc1)c1ccc(F)cc1 [compound 10]
FBP1 mRNA expression ([2]; HepG2, 50 µM): decreased FBP1 mRNA levels; also recorded: robustly decreased FBP1 expression | Kd [3]: ~1.7 µM and 1.7 µM | n (ITC binding model) [3]: 1.1 | Follow-up HNF4α (fold activation of reporter activity) ([1]; 50 µM, mean ± SD): 0.75 ± 0.05 (50 µM) fold activation | HNF4α Ligand Type [1]: inverse HNF4α agonism; also recorded: Inverse agonist | IC50 ([1]; dose-response, inverse agonism, mean ± SD, read-out: Validated HNF4α Modulation IC50): 24 µM | HNF4α vs. VP16 (p, t-test) [1, 5]: p = 0.0057 (**) | VP16 Control (fold activation of reporter activity) (Gal4–VP16; 50 µM): 1.1 ± 0.2 (50 µM) fold activation

Cc1cc(=O)n(-c2ccc(C)c(C)c2)[nH]1 [compound 11, Cc1cc(=O)n([nH]1)-c1ccc(C)c(C)c1]
Primary Screen (Fold Act., 50 µM) ([1]; 50 µM): 0.32 fold activation | Follow-up HNF4α (fold activation of reporter activity) ([1]; 50 µM, mean ± SD): tendency for HNF4α modulation | Follow-up HNF4α (fold activation of reporter activity) ([1]; 100 µM, mean ± SD): 0.21 ± 0.03 (100 µM) fold activation | HNF4a-screening_activity_(mean_of_n=2) ([1]; 50 µM): 0.3184 | VP16 Control (fold activation of reporter activity) (Gal4–VP16; 100 µM): 0.21 ± 0.02 (100 µM) fold activation

B1: recombinant HNF4α LBD protein (hepatocyte nuclear factor 4α ligand-binding domain, aa. 148–377) (domain or fragment, human, UniProt P41235-1 148-377, looked up)
chain: SLPSINALLQAEVLSRQITSPVSGINGDIRAKKIASIADVCESMKEQLLVLVEWAKYIPAFCELPLDDQVALLRAHAGEHLLLGATKRSMVFKDVLLLGNDYIVPRHCPELAEMSRVSIRILDELVLPFQELQIDDNEYAYLKAIIFFDPDAKGLSDPGKIKRLRSQVQVSLEDYINDRQYDSRGRFGELLLLLPTLQSITWQMIEQIQFIKLFGMAKIDNLLQEMLLGG
notes: 148-377, subcloned into pNIC28-Bsa4; UniProt entry and species are printed for the Gal4-HNF4α reporter construct, not expressly for the E. coli construct; also called NR2A1
binding result [4]: binds
